Results: patent US20040018941A1, “Fused-benzene derivatives of thiouracil, herbicidal and desiccant compositions contaning them” (ISHIHARA SANGYO KAISHA, LTD., priority 2002, published 2004)

Assays:
Assay type in all cases: in vivo
Settings in all cases: rating 0-100 (0 no damage, 100 complete death), 14 days after application
[1] = test system: velvetleaf (Abutilon theophrasti, ABUTH); experiment: Pre-emerge herbicidal activity, greenhouse screen, ABUTH
Source text: (§1) A standard greenhouse herbicide activity screening system was used to evaluate the herbicidal efficacy and crop safety of these test compounds. Seven broadleaf weed species including redroot pigweed (Amaranthus retroflexus, AMARE), velvetleaf (Abutilon theophrasti, ABUTH), sicklepod (Cassia obtusifolia, CASOB), ivyleaf morningglory (Ipomoea hederacea, IPOHE), lambsquarters (Chenopodium album, CHEAL), common ragweed (Ambrosia artemisiifolia L., AMBEL), and cocklebur (Xanthium strumarium, XANST) were used as test species. Four grass weed species including green foxtail (Setaria viridis, SETVI), barnyardgrass (Echinochloa crus-galli, ECHCG), johnsongrass (Sorghum halepense, SORHA), and large crabgrass (Digitaria sanguinalis, DIGSA) were also used. In addition, three crop species, field corn (Zea mays L., var. Dekalb 527, CORN), soybean (Glycine max L., var. Pella 86, SOY), and upland rice (Oryza sp., var. Tebonnet, RICE) were included.
(§2) All plants were grown in 10 cm square plastic pots which were filled with a sandy loam soil mix. For pre-emerge tests, seeds were planted one day prior to application of the test compounds. For post-emerge tests, seeds were planted 8-21 days prior to the test to allow emergence and good foliage development prior to application of the test substances. At the time of the post-emerge application, plants of all species were usually at the 2-3 leaf stage of development.
(§3) All test compounds were dissolved in acetone and applied to the test units in a volume of 187 l/ha. Test materials were applied at rates ranging from 15 g ai/ha to 1000 g ai/ha using a track sprayer equipped with a TJ8001 E even flow flat fan spray nozzle. Plants were arranged on a shelf so that the top of the canopy (post-emerge) or top of the soil surface (pre-emerge) was 40-45 cm below the nozzle. Pressurized air was used to force the test solution through the nozzle as it was mechanically advanced over the top of all test plants/pots. This application simulates a typical commercial field herbicide application.
(§4) In the post-emerge test, a commercial non-ionic surfactant was also included (0.25% v/v) to enhance wetting of the leaf surfaces of target plants. Immediately after application, test units of the pre-emerge applications were watered at the soil surface to incorporate the test materials.
(§5) At 14 days after application of the test materials, phytotoxicity ratings were recorded. A rating scale of 0-100 was used as previously described in Research Methods in Weed Science, 2nd edition, B. Truelove, Ed., Southern Weed Science Society, Auburn University, Auburn, Ala., 1977. Briefly, “0” corresponds to no damage and “100” corresponds to complete death of all plants in the test unit. This scale was used both to determine efficacy against weed species and damage to crop species. Herbicide activity data for various compounds of this invention, which are shown by compound No. in Tables 1-7, are shown in Tables 8 and 9.

[2] = test system: sicklepod (Cassia obtusifolia, CASOB); experiment: Post-emerge herbicidal activity, greenhouse screen, CASOB
Source text: as §1, §2, §3, §4, §5

[3] = test system: field corn (Zea mays L., var. Dekalb 527, CORN); experiment: Pre-emerge crop damage, greenhouse screen, CORN
Source text: as §1, §2, §3, §4, §5

[4] = test system: barnyardgrass (Echinochloa crus-galli, ECHCG); experiment: Post-emerge herbicidal activity, greenhouse screen, ECHCG
Source text: as §1, §2, §3, §4, §5

[5] = test system: johnsongrass (Sorghum halepense, SORHA); experiment: Pre-emerge herbicidal activity, greenhouse screen, SORHA
Source text: as §1, §2, §3, §4, §5

[6] = test system: lambsquarters (Chenopodium album, CHEAL); experiment: Pre-emerge herbicidal activity, greenhouse screen, CHEAL
Source text: as §1, §2, §3, §4, §5

[7] = test system: large crabgrass (Digitaria sanguinalis, DIGSA); experiment: Pre-emerge herbicidal activity, greenhouse screen, DIGSA
Source text: as §1, §2, §3, §4, §5

[8] = test system: barnyardgrass (Echinochloa crus-galli, ECHCG); experiment: Pre-emerge herbicidal activity, greenhouse screen, ECHCG
Source text: as §1, §2, §3, §4, §5

[9] = test system: ivyleaf morningglory (Ipomoea hederacea, IPOHE); experiment: Pre-emerge herbicidal activity, greenhouse screen, IPOHE
Source text: as §1, §2, §3, §4, §5

[10] = test system: large crabgrass (Digitaria sanguinalis, DIGSA); experiment: Post-emerge herbicidal activity, greenhouse screen, DIGSA
Source text: as §1, §2, §3, §4, §5

[11] = test system: green foxtail (Setaria viridis, SETVI); experiment: Pre-emerge herbicidal activity, greenhouse screen, SETVI
Source text: as §1, §2, §3, §4, §5

[12] = test system: field corn (Zea mays L., var. Dekalb 527, CORN); experiment: Post-emerge crop damage, greenhouse screen, CORN
Source text: as §1, §2, §3, §4, §5

[13] = test system: green foxtail (Setaria viridis, SETVI); experiment: Post-emerge herbicidal activity, greenhouse screen, SETVI
Source text: as §1, §2, §3, §4, §5

[14] = test system: upland rice (Oryza sp., var. Tebonnet, RICE); experiment: Pre-emerge crop damage, greenhouse screen, RICE
Source text: as §1, §2, §3, §4, §5

[15] = test system: upland rice (Oryza sp., var. Tebonnet, RICE); experiment: Post-emerge crop damage, greenhouse screen, RICE
Source text: as §1, §2, §3, §4, §5

[16] = test system: lambsquarters (Chenopodium album, CHEAL); experiment: Post-emerge herbicidal activity, greenhouse screen, CHEAL
Source text: as §1, §2, §3, §4, §5

[17] = test system: ivyleaf morningglory (Ipomoea hederacea, IPOHE); experiment: Post-emerge herbicidal activity, greenhouse screen, IPOHE
Source text: as §1, §2, §3, §4, §5

[18] = test system: sicklepod (Cassia obtusifolia, CASOB); experiment: Pre-emerge herbicidal activity, greenhouse screen, CASOB
Source text: as §1, §2, §3, §4, §5

[19] = test system: redroot pigweed (Amaranthus retroflexus, AMARE); experiment: Post-emerge herbicidal activity, greenhouse screen, AMARE
Source text: as §1, §2, §3, §4, §5

[20] = test system: common ragweed (Ambrosia artemisiifolia L., AMBEL); experiment: Pre-emerge herbicidal activity, greenhouse screen, AMBEL
Source text: as §1, §2, §3, §4, §5

[21] = test system: common ragweed (Ambrosia artemisiifolia L., AMBEL); experiment: Post-emerge herbicidal activity, greenhouse screen, AMBEL
Source text: as §1, §2, §3, §4, §5

[22] = test system: johnsongrass (Sorghum halepense, SORHA); experiment: Post-emerge herbicidal activity, greenhouse screen, SORHA
Source text: as §1, §2, §3, §4, §5

[23] = test system: soybean (Glycine max L., var. Pella 86, SOY); experiment: Post-emerge crop damage, greenhouse screen, SOY
Source text: as §1, §2, §3, §4, §5

[24] = test system: soybean (Glycine max L., var. Pella 86, SOY); experiment: Pre-emerge crop damage, greenhouse screen, SOY
Source text: as §1, §2, §3, §4, §5

[25] = test system: velvetleaf (Abutilon theophrasti, ABUTH); experiment: Post-emerge herbicidal activity, greenhouse screen, ABUTH
Source text: as §1, §2, §3, §4, §5

[26] = test system: redroot pigweed (Amaranthus retroflexus, AMARE); experiment: Pre-emerge herbicidal activity, greenhouse screen, AMARE
Source text: as §1, §2, §3, §4, §5

Structure (SMILES): Cn1c(C(F)(F)F)cc(=O)n(-c2c(F)ccc3nc(C(C)(C)C)oc23)c1=S [Compound 1-5]
- Pre-emerge Herbicidal Activity ABUTH ([1]; 63 g ai/ha): 100
- Pre-emerge Herbicidal Activity ABUTH ([1]; 250 g ai/ha): 100
- Post-emerge Herbicidal Activity CASOB ([2]; 63 g ai/ha): 60
- Post-emerge Herbicidal Activity CASOB ([2]; 250 g ai/ha): 90
- Pre-emerge Herbicidal Activity CORN (crop damage) ([3]; 63 g ai/ha): 85
- Pre-emerge Herbicidal Activity CORN (crop damage) ([3]; 250 g ai/ha): 100
- Post-emerge Herbicidal Activity ECHCG ([4]; 63 g ai/ha): 100
- Post-emerge Herbicidal Activity ECHCG ([4]; 250 g ai/ha): 100
- Pre-emerge Herbicidal Activity SORHA ([5]; 63 g ai/ha): 99
- Pre-emerge Herbicidal Activity SORHA ([5]; 250 g ai/ha): 100
- Pre-emerge Herbicidal Activity CHEAL ([6]; 63 g ai/ha): 100
- Pre-emerge Herbicidal Activity CHEAL ([6]; 250 g ai/ha): 100
- Pre-emerge Herbicidal Activity DIGSA ([7]; 63 g ai/ha): 100
- Pre-emerge Herbicidal Activity DIGSA ([7]; 250 g ai/ha): 100
- Pre-emerge Herbicidal Activity ECHCG ([8]; 63 g ai/ha): 100
- Pre-emerge Herbicidal Activity ECHCG ([8]; 250 g ai/ha): 100
- Pre-emerge Herbicidal Activity IPOHE ([9]; 63 g ai/ha): 100
- Pre-emerge Herbicidal Activity IPOHE ([9]; 250 g ai/ha): 100
- Post-emerge Herbicidal Activity DIGSA ([10]; 63 g ai/ha): 60
- Post-emerge Herbicidal Activity DIGSA ([10]; 250 g ai/ha): 75
- Pre-emerge Herbicidal Activity SETVI ([11]; 63 g ai/ha): 100
- Pre-emerge Herbicidal Activity SETVI ([11]; 250 g ai/ha): 100
- Post-emerge Herbicidal Activity CORN (crop damage) ([12]; 63 g ai/ha): 15
- Post-emerge Herbicidal Activity CORN (crop damage) ([12]; 250 g ai/ha): 30
- Post-emerge Herbicidal Activity SETVI ([13]; 63 g ai/ha): 80
- Post-emerge Herbicidal Activity SETVI ([13]; 250 g ai/ha): 85
- Pre-emerge Herbicidal Activity RICE (crop damage) ([14]; 63 g ai/ha): 55
- Pre-emerge Herbicidal Activity RICE (crop damage) ([14]; 250 g ai/ha): 80
- Post-emerge Herbicidal Activity RICE (crop damage) ([15]; 63 g ai/ha): 65
- Post-emerge Herbicidal Activity RICE (crop damage) ([15]; 250 g ai/ha): 70
- Post-emerge Herbicidal Activity CHEAL ([16]; 63 g ai/ha): 95
- Post-emerge Herbicidal Activity CHEAL ([16]; 250 g ai/ha): 100
- Post-emerge Herbicidal Activity IPOHE ([17]; 63 g ai/ha): 100
- Post-emerge Herbicidal Activity IPOHE ([17]; 250 g ai/ha): 100
- Pre-emerge Herbicidal Activity CASOB ([18]; 63 g ai/ha): 90
- Pre-emerge Herbicidal Activity CASOB ([18]; 250 g ai/ha): 100
- Post-emerge Herbicidal Activity AMARE ([19]; 63 g ai/ha): 99
- Post-emerge Herbicidal Activity AMARE ([19]; 250 g ai/ha): 100
- Pre-emerge Herbicidal Activity AMBEL ([20]; 63 g ai/ha): 99
- Pre-emerge Herbicidal Activity AMBEL ([20]; 250 g ai/ha): 100
- Post-emerge Herbicidal Activity AMBEL ([21]; 63 g ai/ha): 90
- Post-emerge Herbicidal Activity AMBEL ([21]; 250 g ai/ha): 100
- Post-emerge Herbicidal Activity SORHA ([22]; 63 g ai/ha): 55
- Post-emerge Herbicidal Activity SORHA ([22]; 250 g ai/ha): 75
- Post-emerge Herbicidal Activity SOY (crop damage) ([23]; 63 g ai/ha): 50
- Post-emerge Herbicidal Activity SOY (crop damage) ([23]; 250 g ai/ha): 75
- Pre-emerge Herbicidal Activity SOY (crop damage) ([24]; 63 g ai/ha): 0
- Pre-emerge Herbicidal Activity SOY (crop damage) ([24]; 250 g ai/ha): 99
- Post-emerge Herbicidal Activity ABUTH ([25]; 63 g ai/ha): 100
- Post-emerge Herbicidal Activity ABUTH ([25]; 250 g ai/ha): 100
- Pre-emerge Herbicidal Activity AMARE ([26]; 63 g ai/ha): 100
- Pre-emerge Herbicidal Activity AMARE ([26]; 250 g ai/ha): 100
